The target of assay [1] is T1, human vanin-1 (Homo sapiens (Human), UniProt O95497). Put plainly: Human Vanin-1 Enzyme Assay 1. In kind it is biochemical. The note with it: 25 pM human vanin-1, 50 uM pantetheine 7-amino-4-trifluoromethylcoumarin, 30 min preincubation, 60 min. As for the experimental part: Human Vanin-1 Enzyme Assay 1.
(§1) The in vitro assay measures enzymatic cleavage of the fluorescently-labeled vanin substrate, pantetheine 7-amino-4-trifluoromethylcoumarin, by human vanin-1.
(§2) The vanin-1 protein was prepared in-house from a construct expressing the extracellular domain of human vanin-1 (GenBank ID NM_004666) preceded N-terminally by the honey bee melittin signal peptide, a GSG linker sequence, a His6X tag and a FLAG tag. The secreted, soluble enzyme was purified from the conditioned medium from a CHO cell line stably expressing the resulting protein. Enzyme purification was performed through sequential Ni NTA and size-exclusion chromatography steps.
The test inhibitors were solubilized in DMSO to a stock concentration of 30 mM. On the day of the assay, dose response plates were prepared by diluting the inhibitors in DMSO at compound concentration 200-fold the final in-assay concentration. Intermediate concentrations were prepared by diluting in DMSO in a four-fold series for a total of 11 data points.
To prepare a working solution of human vanin-1, the enzyme was diluted to 33.3 pM in the assay buffer consisting of 50 mM Tris-HCl pH=8.0, 50 mM KCl, 0.005% Brij-35 and […] cysteamine. To begin the assay 100 nL was transferred from the compound plate to the assay plate. Next, 15 μL of the vanin-1 working solution were transferred to the assay plate. The inhibitor and enzyme were incubated at room temperature for 30 minutes. The enzyme reaction was then initiated by the addition of 5 μL of 200 μM pantetheine 7-amino-4-trifluoromethylcoumarin prepared in assay buffer. The final concentrations in the assay were 25 pM human vanin-1 and 50 uM substrate. The final concentration of DMSO was 0.5%. The assay plates were incubated for 60 minutes and before they were read on a Perkin Elmer EnVision Model 2103 using a 405 nm excitation wavelength and a 510 nm emission wavelength for detection.

Assay [2] has as its target T1, human vanin-1. Briefly: Human Vanin-1 Enzyme Assay 3. It counts as biochemical. The note with it: 2 nM human vanin-1, 10 uM substrate, 15 min. As for the experimental part: Human Vanin-1 Enzyme Assay 3.
as §1, §2
On the day of the assay, dose response plates were prepared by diluting the inhibitors in DMSO at compound concentration 100-fold the final in-assay concentration. Concentration series were prepared by serially diluting in DMSO in a two-fold series for a total of 11 data points. Intermediate compound plates containing compound in 10% DMSO were then created by diluting the compounds 10-fold in assay buffer consisting of 50 mM Tris-HCl pH=8.0, 50 mM KCl, 0.005% Brij-35 and 1.5 mM cysteamine. To begin the assay 3 μL were transferred from the intermediate compound plate to the assay plate.
A working solution of human vanin-1 was prepared by diluting the enzyme stock to 2.5 nM in assay buffer. Next, 24 μL of the vanin-1 working solution were transferred to the assay plate. The enzyme reaction was then initiated by the addition of 3 μL of 100 μM pantetheine 7-amino-4-trifluoromethylcoumarin prepared in 5 uM acetic acid. The final concentrations in the assay were 2 nM human vanin-1 and 10 uM substrate. The final concentration of DMSO was 1%. The assay plates were incubated at room temperature for 15 minutes and before they were read on a Tecan Safire using a 405 nm excitation wavelength and a 505 nm emission wavelength for detection.

T1 sequence (O95497 22-491): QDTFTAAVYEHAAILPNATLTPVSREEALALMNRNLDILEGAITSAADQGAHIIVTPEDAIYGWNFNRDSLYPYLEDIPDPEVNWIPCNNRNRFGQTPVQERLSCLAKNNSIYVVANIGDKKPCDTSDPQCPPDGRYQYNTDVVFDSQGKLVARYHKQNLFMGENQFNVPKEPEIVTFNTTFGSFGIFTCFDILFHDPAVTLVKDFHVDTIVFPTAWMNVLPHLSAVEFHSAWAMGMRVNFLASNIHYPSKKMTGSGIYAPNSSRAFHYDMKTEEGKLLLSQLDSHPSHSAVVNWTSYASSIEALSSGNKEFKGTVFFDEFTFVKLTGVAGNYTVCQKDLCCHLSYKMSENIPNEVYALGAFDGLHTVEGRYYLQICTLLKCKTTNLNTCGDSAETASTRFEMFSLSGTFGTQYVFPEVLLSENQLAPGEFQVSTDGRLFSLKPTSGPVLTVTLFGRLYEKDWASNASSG

Regarding `O=C(c1cnc(NCc2cccnc2)nc1)c1ccc(F)c(F)c1` [Example 22, (3,4-difluorophenyl){2-[(pyridin-3-ylmethyl)amino]pyrimidin-5-yl}methanone], the concentration for half-maximal inhibition (IC50) in assay [1] was determined as 93.3 nM; in assay [2], 43.7 nM.

For the compound `N#Cc1cccc(CNc2ncc(C(=O)c3cccc(Cl)c3)cn2)c1` [Example 26, 3-({[5-(3-chlorobenzoyl)pyrimidin-2-yl]amino}methyl) benzonitrile], the half-inhibitory concentration (IC50) in assay [1] turned out to be 4170 nM; in assay [2], 63.2 nM.

`O=C(c1cnc(NCc2ccccc2)nc1)c1cccc(C(F)(F)F)c1` [Example 35, [2-(benzylamino)pyrimidin-5-yl][3-(trifluoromethyl)phenyl]methanone]: the IC50 in assay [1] was 242 nM; in assay [2], 20.5 nM.

For the compound `Cc1cccc(C(=O)c2cnc(NCc3ccncc3)nc2)c1` [Example 39, (3-methylphenyl){2-[(pyridin-4-ylmethyl)amino]pyrimidin-5-yl}methanone], the results for the IC50 in assay [1] and in assay [2] were 467 nM and 660 nM, respectively.

`COc1ccc(CNc2ncc(C(=O)c3ccc(F)c(F)c3)cn2)cc1` [Example 41, (3,4-difluorophenyl){2-[(4-methoxybenzyl)amino]pyrimidin-5-yl}methanone]: the figures for the IC50 in assay [1] and in assay [2] were 4270 nM and 808 nM, respectively.

For `Cc1cccc(C(=O)c2cnc(NCc3ccc(C#N)cc3)nc2)c1` [Example 42, 4-({[5-(3-methylbenzoyl)pyrimidin-2-yl]amino}methyl) benzonitrile], the IC50 in assay [1] stood at 1060 nM; in assay [2], 709 nM.

As for `NC(=O)c1ccc(CNc2ncc(C(=O)c3ccc(F)c(F)c3)cn2)cc1` [Example 43, 4-({[5-(3,4-difluorobenzoyl)pyrimidin-2-yl]amino}methyl) benzamide], the IC50 in assay [1] was found to be 2220 nM; in assay [2], 490 nM.

Regarding `CC(C)(Nc1ncc(C(=O)c2ccc(F)c(F)c2)cn1)c1ccccc1` [Example 44, (3,4-difluorophenyl){2-[(2-phenylpropan-2-yl)amino]pyrimidin-5-yl}methanone], the figures for the IC50 in assay [1] and in assay [2] were 508 nM and 105 nM, respectively.

Turning to `O=C(c1cnc(OCc2ccc(F)cc2)nc1)c1cccc(C(F)(F)F)c1` [Example 46, {2-[(4-fluorobenzyl)oxy]pyrimidin-5-yl}[3-(trifluoromethyl)phenyl]methanone], the IC50 is > 20000 nM in assay [1] and > 213 nM in assay [2].

Take `O=C(c1cnc(OCc2ccc(Cl)cc2)nc1)c1cccc(C(F)(F)F)c1` [Example 47, {2-[(4-chlorobenzyl)oxy]pyrimidin-5-yl}[3-(trifluoromethyl)phenyl]methanone]: the figures for the IC50 in assay [1] and in assay [2] were > 5130 nM and > 729 nM, respectively.

In assay [2], `O=C(c1ccc(C(F)(F)F)cc1)c1cnc(NCc2ccc(F)cc2)nc1` [Example 54, {2-[(4-fluorobenzyl)amino]pyrimidin-5-yl}[4-(trifluoromethyl)phenyl]methanone] returned an IC50 of 35.4 nM.

With `COc1ccc(CNc2ncc(C(=O)c3ccc(C(F)(F)F)cc3)cn2)cc1` [Example 55, {2-[(4-methoxybenzyl)amino]pyrimidin-5-yl}[4-(trifluoromethyl)phenyl]methanone], the IC50 in assay [2] was < 16.5 nM.

In assay [2], `O=C(c1cnc(NCc2ccncc2)nc1)c1cccc(C(F)(F)F)c1` [Example 56, {2-[(pyridin-4-ylmethyl)amino]pyrimidin-5-yl}[3-(trifluoromethyl)phenyl]methanone] showed an IC50 of 36.2 nM. In other words, the double-digit nanomolar range.

In turn, `O=C(c1ccc(Cl)cc1)c1cnc(NCc2ccc(Cl)cc2)nc1` [Example 57, {2-[(4-chlorobenzyl)amino]pyrimidin-5-yl}(4-chlorophenyl) methanone] had an IC50 in assay [2] of 889 nM. This IC50 lies about 25-fold higher than the previous one.

In assay [2], `O=C(c1cnc(NCc2ccc(OC(F)(F)F)cc2)nc1)c1cccc(C(F)(F)F)c1` [Example 58, (2-{[4-(trifluoromethoxy)benzyl]amino}pyrimidin-5-yl)[3-(trifluoromethyl)phenyl]methanone] had an IC50 of 133 nM.

In the case of `COc1ccc(C(=O)c2cnc(NCc3ccccn3)nc2)cc1` [Example 60, (4-methoxyphenyl) {2-[(pyridin-2-ylmethyl)amino]pyrimidin-5-yl}methanone], the IC50 in assay [2] is 89.5 nM.

`O=C(c1cnc(NCc2ccc(Cl)cc2F)nc1)c1cccc(C(F)(F)F)c1` [Example 61, {2-[(4-chloro-2-fluorobenzyl)amino]pyrimidin-5-yl}[3-(trifluoromethyl)phenyl]methanone]: in assay [2], the IC50 was found to be 24.9 nM.

As for `N#Cc1cccc(CNc2ncc(C(=O)c3cccc(C(F)(F)F)c3)cn2)c1` [Example 62, 3-[({5-[3-(trifluoromethyl)benzoyl]pyrimidin-2-yl}amino)methyl] benzonitrile], the IC50 in assay [1] was 150 nM; in assay [2] it was > 123 nM.

Regarding `COc1ccc(CNc2ncc(C(=O)c3ccc(Cl)cc3)cn2)cc1` [Example 63, (4-chlorophenyl){2-[(4-methoxybenzyl)amino]pyrimidin-5-yl}methanone], the IC50 in assay [2] turned out to be 569 nM.

For `N#Cc1cccc(CNc2ncc(C(=O)c3cccc(C#N)c3)cn2)c1` [Example 64, 3-({[5-(3-cyanobenzoyl)pyrimidin-2-yl]amino}methyl) benzonitrile], the IC50 in assay [1] is 99.2 nM; in assay [2], 74.4 nM.

In assay [2], `O=C(c1cnc(NC2(c3cccnc3)CC2)nc1)c1cccc(C(F)(F)F)c1` [Example 71, (2-{[1-(pyridin-3-yl)cyclopropyl]amino}pyrimidin-5-yl)[3-(trifluoromethyl)phenyl]methanone] yielded an IC50 of 23.8 nM.

`COc1ccc(C(=O)c2cnc(NCc3ccccc3)nc2)cc1` [Example 74, [2-(benzylamino)pyrimidin-5-yl](4-methoxyphenyl) methanone] had an IC50 in assay [2] of 736 nM.

In turn, `COc1ccc(C(=O)c2cnc(NCc3ccc(OC(F)(F)F)cc3)nc2)cc1` [Example 75, (4-methoxyphenyl) (2-{[4-(trifluoromethoxy)benzyl]amino}pyrimidin-5-yl)methanone] registered an IC50 in assay [2] of 617 nM.

For the compound `N#Cc1ccc(CNc2ncc(C(=O)c3cccc(C(F)(F)F)c3)cn2)cc1` [Example 76, 4-[({5-[3-(trifluoromethyl)benzoyl]pyrimidin-2-yl}amino)methyl] benzonitrile], in assay [2], inhibition was half-maximal at 112 nM (IC50).

Consider `COc1ccc(C(=O)c2cnc(NCc3cccc(C#N)c3)nc2)cc1` [Example 77, 3-({[5-(4-methoxybenzoyl)pyrimidin-2-yl]amino}methyl) benzonitrile], for which half-maximal inhibition in assay [2] (IC50) required 998 nM. Against the preceding compound, the IC50 is about 8.9-fold higher.

In turn, `O=C(c1cnc(NCc2ccnnc2)nc1)c1cccc(C(F)(F)F)c1` [Example 122, {2-[(pyridazin-4-ylmethyl)amino]pyrimidin-5-yl}[3-(trifluoromethyl)phenyl]methanone] registered an IC50 in assay [2] of 601 nM.

Consider `COc1ccc(COc2ncc(C(=O)c3cccc(C(F)(F)F)c3)cn2)cc1` [Example 157, {2-[(4-methoxybenzyl)oxy]pyrimidin-5-yl}[3-(trifluoromethyl)phenyl]methanone], for which the IC50 in assay [2] is > 2340 nM.

Consider `O=C(c1cnc(OCc2ccc(OC(F)(F)F)cc2)nc1)c1cccc(C(F)(F)F)c1` [Example 158, (2-{[4-(trifluoromethoxy)benzyl]oxy}pyrimidin-5-yl)[3-(trifluoromethyl)phenyl]methanone], for which, in assay [2], the IC50 is > 2890 nM.

For orientation: IC50 means the concentration that inhibits the measured activity by half. Low readings indicate higher potency, high ones lower potency.

Values taken from US10308615B2, “Heterocyclic compounds as inhibitors of Vanin-1 enzyme” (Pfizer Inc., priority 2015, dated 2019).
